Earlier results in patent US11786460B2, “Pharmaceutical dry powder composition for inhalation comprising a thyroid hormone” (priority 2018, dated 2023).

Columns and labels:
[1] = mainly in the jejunum and ileum
Calu-3 cells = conditions: in vitro

N[C@@H](Cc1cc(I)c(Oc2cc(I)c(O)c(I)c2)c(I)c1)C(=O)O [levothyroxine]
fraction absorbed after oral administration [1]: 60-80%
absorption from the respiratory mucosa (permeability) (Calu-3 cells): can be absorbed effectively from the respiratory mucosa
